Experimental data as given in patent US10364247B2, “Preparation and use of novel protein kinase inhibitors” (Ruijin Hospital Affiliated to Shanghai Jiao Tong University …, priority 2015, dated 2019).

Tests used:
[1] = molecular target: ABL1(F317I)-nonphosphorylated (Homo sapiens, UniProt P00519, F317I); assay: KINOMEscan competition binding; settings: read-out: Percent Control
Summary of the method: (§1)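 Competitive displacement format with an active-site ligand on solid support; test concentration 10 μM; data as % Ctrl, lower meaning stronger hit.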

[2] = molecular target: ABL1(T315I)-nonphosphorylated (Homo sapiens, UniProt P00519, T315I); assay: KINOMEscan competition binding; settings: read-out: Percent Control
Summary of the method: as §1

BLK = BLK (Homo sapiens, UniProt P51451); assay: KINOMEscan competition binding; settings: read-out: Percent Control
Summary of the method: as §1

CIT = molecular target: T1, CIT (Homo sapiens, UniProt O14578); assay: KINOMEscan competition binding; settings: read-out: Percent Control
T1 construct: purchased KINOMEscan (panel service)
Summary of the method: as §1

EGFR(E746-A750del) = EGFR(E746-A750del) (Homo sapiens, UniProt P00533, DEL746-750); assay: KINOMEscan competition binding; settings: read-out: Percent Control
Summary of the method: as §1

EGFR(L861Q) = EGFR(L861Q) (Homo sapiens, UniProt P00533, L861Q); assay: KINOMEscan competition binding; settings: read-out: Percent Control
Summary of the method: as §1

EGFR(S752-I759del) = EGFR(S752-I759del) (Homo sapiens, UniProt P00533, DEL752-759); assay: KINOMEscan competition binding; settings: read-out: Percent Control
EGFR(S752-I759del), sequence (P00533 with tags, fused parts or gaps DEL752-759): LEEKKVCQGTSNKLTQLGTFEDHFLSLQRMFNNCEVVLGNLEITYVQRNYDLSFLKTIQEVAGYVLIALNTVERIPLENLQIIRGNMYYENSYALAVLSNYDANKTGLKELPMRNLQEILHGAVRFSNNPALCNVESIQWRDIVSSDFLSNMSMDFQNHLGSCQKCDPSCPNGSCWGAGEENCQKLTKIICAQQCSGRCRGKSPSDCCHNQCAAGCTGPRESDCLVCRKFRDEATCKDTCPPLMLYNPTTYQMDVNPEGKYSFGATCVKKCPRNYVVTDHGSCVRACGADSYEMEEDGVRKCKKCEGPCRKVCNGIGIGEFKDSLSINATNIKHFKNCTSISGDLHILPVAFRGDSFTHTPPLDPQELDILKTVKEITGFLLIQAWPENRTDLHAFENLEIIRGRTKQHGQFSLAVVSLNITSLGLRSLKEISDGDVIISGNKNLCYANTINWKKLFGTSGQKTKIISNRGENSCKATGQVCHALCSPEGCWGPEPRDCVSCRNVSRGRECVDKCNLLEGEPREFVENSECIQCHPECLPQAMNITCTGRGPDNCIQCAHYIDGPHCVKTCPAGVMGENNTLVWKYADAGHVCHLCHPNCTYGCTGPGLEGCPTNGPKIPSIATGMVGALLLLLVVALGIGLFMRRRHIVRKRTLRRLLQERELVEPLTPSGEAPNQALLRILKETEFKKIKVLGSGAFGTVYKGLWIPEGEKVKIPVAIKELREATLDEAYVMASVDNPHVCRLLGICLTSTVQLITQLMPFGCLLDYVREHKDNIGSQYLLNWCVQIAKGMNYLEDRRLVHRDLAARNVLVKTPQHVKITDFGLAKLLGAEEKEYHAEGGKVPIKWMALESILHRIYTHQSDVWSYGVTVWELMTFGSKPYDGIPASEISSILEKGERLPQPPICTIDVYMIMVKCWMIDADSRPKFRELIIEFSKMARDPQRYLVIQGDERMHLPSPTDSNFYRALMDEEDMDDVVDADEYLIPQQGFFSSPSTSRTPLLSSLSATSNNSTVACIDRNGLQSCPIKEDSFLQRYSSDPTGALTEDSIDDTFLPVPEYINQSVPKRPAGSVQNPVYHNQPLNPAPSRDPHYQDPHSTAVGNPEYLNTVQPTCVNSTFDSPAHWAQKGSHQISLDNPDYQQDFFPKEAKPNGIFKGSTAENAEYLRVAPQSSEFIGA
Summary of the method: as §1

EGFR(T790M) = molecular target: T2, EGFR(T790M) (Homo sapiens, UniProt P00533, T790M); assay: KINOMEscan competition binding; settings: read-out: Percent Control
T2 construct: purchased KINOMEscan (screening service)
T2 sequence (P00533 25-1210 T790M): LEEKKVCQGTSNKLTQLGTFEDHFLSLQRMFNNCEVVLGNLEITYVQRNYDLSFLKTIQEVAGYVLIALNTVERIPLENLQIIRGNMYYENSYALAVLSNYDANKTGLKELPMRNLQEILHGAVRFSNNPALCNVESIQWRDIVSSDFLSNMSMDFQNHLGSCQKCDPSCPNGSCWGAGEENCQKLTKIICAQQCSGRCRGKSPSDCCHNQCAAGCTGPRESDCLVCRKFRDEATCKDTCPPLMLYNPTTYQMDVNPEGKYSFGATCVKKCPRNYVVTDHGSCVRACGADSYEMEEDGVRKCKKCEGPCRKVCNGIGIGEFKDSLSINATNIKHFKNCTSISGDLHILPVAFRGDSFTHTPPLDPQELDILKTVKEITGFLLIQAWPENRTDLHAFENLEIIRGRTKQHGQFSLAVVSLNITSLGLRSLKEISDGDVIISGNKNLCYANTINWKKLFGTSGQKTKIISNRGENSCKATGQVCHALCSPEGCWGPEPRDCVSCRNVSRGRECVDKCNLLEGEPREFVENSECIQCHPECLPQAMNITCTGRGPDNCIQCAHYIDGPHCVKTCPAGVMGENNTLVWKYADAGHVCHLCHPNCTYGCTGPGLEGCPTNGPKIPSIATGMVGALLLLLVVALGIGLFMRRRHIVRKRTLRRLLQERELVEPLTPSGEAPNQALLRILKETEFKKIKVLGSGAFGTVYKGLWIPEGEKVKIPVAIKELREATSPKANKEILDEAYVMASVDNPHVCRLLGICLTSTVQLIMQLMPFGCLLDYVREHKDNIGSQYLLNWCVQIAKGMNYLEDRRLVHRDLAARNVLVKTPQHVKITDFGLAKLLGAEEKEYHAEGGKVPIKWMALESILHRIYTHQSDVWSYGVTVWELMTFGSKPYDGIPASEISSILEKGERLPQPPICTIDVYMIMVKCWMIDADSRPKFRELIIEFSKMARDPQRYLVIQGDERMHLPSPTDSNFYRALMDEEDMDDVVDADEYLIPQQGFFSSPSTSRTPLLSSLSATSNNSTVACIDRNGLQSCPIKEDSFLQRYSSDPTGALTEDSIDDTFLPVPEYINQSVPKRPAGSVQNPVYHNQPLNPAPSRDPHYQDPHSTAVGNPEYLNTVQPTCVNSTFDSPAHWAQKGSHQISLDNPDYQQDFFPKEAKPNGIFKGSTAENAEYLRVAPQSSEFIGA
Summary of the method: as §1

EPHB6 = EPHB6 (Homo sapiens, UniProt O15197); assay: KINOMEscan competition binding; settings: read-out: Percent Control
Summary of the method: as §1

FGFR4 = molecular target: T3, FGFR4 (Homo sapiens, UniProt P22455); assay: KINOMEscan competition binding; settings: read-out: Percent Control
T3 construct: purchased KINOMEscan (screening platform)
Summary of the method: as §1

FYN = molecular target: T4, FYN (Homo sapiens, UniProt P06241); assay: KINOMEscan competition binding; settings: read-out: Percent Control
T4 construct: purchased KINOMEscan (panel service)
Summary of the method: as §1

[3] = molecular target: T5, JAK1(JH1domain-catalytic) (Homo sapiens, UniProt P23458); assay: KINOMEscan competition binding; settings: read-out: Percent Control
T5 construct: JAK1(JH1domain-catalytic)
T5 sequence (P23458 875-1153 limits assumed): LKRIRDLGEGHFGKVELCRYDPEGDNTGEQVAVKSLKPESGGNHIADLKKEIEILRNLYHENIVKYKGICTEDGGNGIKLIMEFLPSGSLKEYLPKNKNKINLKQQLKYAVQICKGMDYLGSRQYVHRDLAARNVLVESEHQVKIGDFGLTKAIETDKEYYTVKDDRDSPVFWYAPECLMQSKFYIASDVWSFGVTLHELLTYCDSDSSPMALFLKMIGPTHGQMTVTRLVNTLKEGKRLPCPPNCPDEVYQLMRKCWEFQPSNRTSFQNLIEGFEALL
Summary of the method: as §1

KIT(D816H) = KIT(D816H) (Homo sapiens, UniProt P10721, D816H); assay: KINOMEscan competition binding; settings: read-out: Percent Control
Summary of the method: as §1

LOK = LOK (Homo sapiens, UniProt O94804); assay: KINOMEscan competition binding; settings: LOK (Entrez STK10), read-out: Percent Control
Summary of the method: as §1

MAP3K3 = MAP3K3 (Homo sapiens, UniProt Q99759); assay: KINOMEscan competition binding; settings: read-out: Percent Control
MAP3K3, sequence (Q99759 whole entry): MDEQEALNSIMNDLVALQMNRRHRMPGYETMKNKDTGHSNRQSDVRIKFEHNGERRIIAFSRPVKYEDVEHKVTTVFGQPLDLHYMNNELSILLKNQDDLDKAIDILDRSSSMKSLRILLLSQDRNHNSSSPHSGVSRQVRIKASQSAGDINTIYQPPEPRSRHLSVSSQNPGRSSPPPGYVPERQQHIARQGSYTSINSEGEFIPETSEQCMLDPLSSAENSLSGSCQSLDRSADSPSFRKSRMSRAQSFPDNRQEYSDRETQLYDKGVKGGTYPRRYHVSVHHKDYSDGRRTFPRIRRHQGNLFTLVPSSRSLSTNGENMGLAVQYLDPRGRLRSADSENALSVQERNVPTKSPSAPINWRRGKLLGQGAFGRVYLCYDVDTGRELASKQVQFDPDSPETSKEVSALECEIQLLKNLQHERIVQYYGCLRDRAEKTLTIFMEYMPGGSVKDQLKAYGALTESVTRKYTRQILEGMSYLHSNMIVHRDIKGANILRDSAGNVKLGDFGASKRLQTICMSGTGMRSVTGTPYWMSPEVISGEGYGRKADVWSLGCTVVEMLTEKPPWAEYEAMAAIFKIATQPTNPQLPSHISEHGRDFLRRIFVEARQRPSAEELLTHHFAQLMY
Summary of the method: as §1

MEK4 = MEK4 (Homo sapiens, UniProt P45985); assay: KINOMEscan competition binding; settings: MEK4 (Entrez MAP2K4), read-out: Percent Control
Summary of the method: as §1

MINK = MINK (Homo sapiens, UniProt Q8N4C8); assay: KINOMEscan competition binding; settings: MINK (Entrez MINK1), read-out: Percent Control
Summary of the method: as §1

MUSK = MUSK (Homo sapiens, UniProt O15146); assay: KINOMEscan competition binding; settings: read-out: Percent Control
Summary of the method: as §1

NEK4 = molecular target: T6, NEK4 (Homo sapiens, UniProt P51957); assay: KINOMEscan competition binding; settings: read-out: Percent Control
T6 construct: purchased KINOMEscan (screening platform)
T6 sequence (P51957 whole entry): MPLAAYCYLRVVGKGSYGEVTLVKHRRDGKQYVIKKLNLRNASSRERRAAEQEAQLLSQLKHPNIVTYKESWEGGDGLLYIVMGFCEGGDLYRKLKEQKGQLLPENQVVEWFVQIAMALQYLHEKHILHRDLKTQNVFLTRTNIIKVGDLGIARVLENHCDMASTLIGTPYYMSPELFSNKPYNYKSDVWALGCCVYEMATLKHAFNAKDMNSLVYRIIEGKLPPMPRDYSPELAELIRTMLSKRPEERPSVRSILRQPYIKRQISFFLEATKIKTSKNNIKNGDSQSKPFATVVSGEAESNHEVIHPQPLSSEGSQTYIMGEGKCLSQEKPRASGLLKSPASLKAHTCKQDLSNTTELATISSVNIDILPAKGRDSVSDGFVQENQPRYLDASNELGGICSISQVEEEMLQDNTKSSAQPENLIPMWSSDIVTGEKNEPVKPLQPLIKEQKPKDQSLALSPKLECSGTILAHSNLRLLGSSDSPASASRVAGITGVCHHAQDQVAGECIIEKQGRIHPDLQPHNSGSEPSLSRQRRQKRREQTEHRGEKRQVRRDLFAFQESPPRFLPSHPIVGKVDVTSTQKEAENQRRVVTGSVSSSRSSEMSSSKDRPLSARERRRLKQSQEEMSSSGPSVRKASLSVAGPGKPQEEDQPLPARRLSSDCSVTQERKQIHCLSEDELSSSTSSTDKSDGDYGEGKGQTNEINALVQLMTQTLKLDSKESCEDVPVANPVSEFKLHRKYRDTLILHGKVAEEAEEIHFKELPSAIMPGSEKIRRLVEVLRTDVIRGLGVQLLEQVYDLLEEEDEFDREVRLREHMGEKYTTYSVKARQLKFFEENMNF
Summary of the method: as §1

RET = RET (Homo sapiens, UniProt P07949); assay: KINOMEscan competition binding; settings: read-out: Percent Control
Summary of the method: as §1

SIK2 = molecular target: T7, SIK2 (Homo sapiens, UniProt Q9H0K1); assay: KINOMEscan competition binding; settings: read-out: Percent Control
T7 construct: purchased KINOMEscan (screening service)
Summary of the method: as §1

TAK1 = molecular target: T8, TAK1 (Homo sapiens, UniProt O43318); assay: KINOMEscan competition binding; settings: TAK1 (Entrez MAP3K7), read-out: Percent Control
T8 construct: purchased KINOMEscan (panel service)
T8 sequence (O43318 whole entry): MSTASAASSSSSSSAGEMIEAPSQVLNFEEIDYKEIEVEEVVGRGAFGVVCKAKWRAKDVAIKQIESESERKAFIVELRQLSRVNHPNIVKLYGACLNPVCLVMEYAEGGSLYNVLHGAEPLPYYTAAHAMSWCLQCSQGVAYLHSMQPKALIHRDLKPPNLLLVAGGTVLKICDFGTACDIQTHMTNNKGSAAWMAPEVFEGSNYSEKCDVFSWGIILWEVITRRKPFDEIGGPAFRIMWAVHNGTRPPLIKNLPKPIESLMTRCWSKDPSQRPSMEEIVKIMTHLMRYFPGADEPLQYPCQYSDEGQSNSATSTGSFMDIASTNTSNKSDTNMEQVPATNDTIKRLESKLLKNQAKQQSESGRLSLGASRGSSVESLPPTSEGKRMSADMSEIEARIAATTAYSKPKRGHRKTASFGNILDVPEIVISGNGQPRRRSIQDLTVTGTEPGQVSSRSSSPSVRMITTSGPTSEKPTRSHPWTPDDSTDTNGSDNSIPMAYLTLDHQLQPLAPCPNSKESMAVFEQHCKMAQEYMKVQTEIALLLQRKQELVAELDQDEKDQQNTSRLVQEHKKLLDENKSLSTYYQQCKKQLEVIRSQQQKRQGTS
Summary of the method: as §1

TRPM6 = molecular target: T9, TRPM6 (Homo sapiens, UniProt Q9BX84); assay: KINOMEscan competition binding; settings: read-out: Percent Control
T9 construct: purchased KINOMEscan (screening platform)
T9 sequence (Q9BX84 1750-1980 limits assumed): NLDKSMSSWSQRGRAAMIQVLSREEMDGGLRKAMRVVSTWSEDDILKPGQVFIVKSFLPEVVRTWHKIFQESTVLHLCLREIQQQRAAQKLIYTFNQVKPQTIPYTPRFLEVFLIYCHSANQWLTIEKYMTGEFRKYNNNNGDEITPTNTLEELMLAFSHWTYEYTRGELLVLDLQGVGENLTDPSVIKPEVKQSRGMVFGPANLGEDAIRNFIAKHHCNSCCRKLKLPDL
Summary of the method: as §1

YES = molecular target: T10, YES (Homo sapiens, UniProt P07947); assay: KINOMEscan competition binding; settings: YES (Entrez YES1), read-out: Percent Control
T10 construct: purchased KINOMEscan (panel service)
Summary of the method: as §1

BaF3-BCR/ABL = molecular target: T11, BaF3-BCR/ABL (Homo sapiens, UniProt P00519); assay: Antiproliferative activity, kinase-dependent Ba/F3 cells (MTT/MTS); format: cell-based, murine; settings: 48 hours, cell viability, read-out: BCR/ABL IC50
T11 construct: fused on or other part: P11274 (Breakpoint cluster region protein)
Summary of the method: (§2)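 Murine Ba/F3 cells transformed with BCR/ABL (p210) or BCR/ABL-T315I, grown in RPMI/10% FCS without IL3, were seeded at 20,000 cells/well. Viability was read by MTT/MTS. IC50 is the concentration reducing viability to 50% of DMSO vehicle control.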

BaF3-BCR/ABL-T315I = molecular target: T12, BaF3-BCR/ABL-T315I (Homo sapiens, UniProt P00519, T315I, cells depend on it); assay: as above; format: cell-based, murine; settings: 48 hours, cell viability, read-out: BCR/ABL T315I IC50
T12 construct: fused on or other part: P11274 (Breakpoint cluster region protein)
Summary of the method: as §2

Cc1ccc(Nc2ncc3c(n2)N(C)CN(c2cc(NC(=O)c4cccc(C(F)(F)F)c4)ccc2C)C3)cn1 [IA-9, N-(4-methyl-3-(1-methyl-7-((6-methylpyridin-3-yl)amino)-1,4-dihydropyrimido[4,5-d]pyrimidin-3(2H)-yl)phenyl)-3-(trifluoromethyl)benzamide]
remaining binding at 10 µM [1]: 0% | remaining binding at 10 µM [2]: 0% | remaining binding at 10 µM (BLK): 0.3% | remaining binding at 10 µM (CIT): 0.1% | remaining binding at 10 µM (EGFR(E746-A750del)): 2.3% | remaining binding at 10 µM (EGFR(L861Q)): 0% | remaining binding at 10 µM (EGFR(S752-I759del)): 0% | remaining binding at 10 µM (EGFR(T790M)): 13% | remaining binding at 10 µM (EPHB6): 0.3% | remaining binding at 10 µM (FGFR4): 25% | remaining binding at 10 µM (FYN): 0.05% | remaining binding at 10 µM [3]: 2% | remaining binding at 10 µM (KIT(D816H)): 5.4% | remaining binding at 10 µM (LOK): 0% | remaining binding at 10 µM (MAP3K3): 1.3% | remaining binding at 10 µM (MEK4): 2% | remaining binding at 10 µM (MINK): 3.6% | remaining binding at 10 µM (MUSK): 6.8% | remaining binding at 10 µM (NEK4): 30% | remaining binding at 10 µM (RET): 0% | remaining binding at 10 µM (SIK2): 21% | remaining binding at 10 µM (TAK1): 0.1% | remaining binding at 10 µM (TRPM6): 26% | remaining binding at 10 µM (YES): 0.05% | GI50 (BaF3-BCR/ABL): 5 nM | GI50 (BaF3-BCR/ABL-T315I): 651 nM
